Test system: 521955-158-R2-J5-PDC complex spheroid viability
Test: Anticancer human tumor 521955-158-R2-J5-PDC patient-derived pancreatic carcinoma cell line growth inhibition
Conditions: for viability, T/C: stronger effect = lower value
Excerpt: Multicellular complex tumor spheroid response to LSD1 Inhibitor Iadademstat in combination with a variety of drugs and investigational agents in selected tumor cell lines
The current study was undertaken to assess response to LSD1 inhibitors in combination with standard-of-care drugs and investigational agents in solid tumor complex spheroid models as well as in the K-562 leukemia. Complex spheroids include a stromal component modeled by human endothelial cells (HUVEC) and fibroblasts modeled by human mesenchymal stem cells (MSCs). The concentration ranges selected for each drug and investigational agent were based upon clinically achievable concentrations if the clinical Cmax of the agent was known.
Compounds. The drugs and investigational agents used in this study are listed on Table 1. All of the agents used, including staurosporine (NSC755774) and gemcitabine (NSC613327), were obtained from the Developmental Therapeutics Program, NCI. FDA-approved anticancer drugs are available from the NCI at http://dtp.nci.nih.gov/branches/dscb/oncology_drugset_explanation.html. Drugs and investigational agents were >95% pure by proton nuclear magnetic resonance (NMR) and liquid chromatography/mass spectrometry (LC/MS). Stock solutions were prepared at 400x in DMSO, stored at -70 degrees C, and diluted in fresh medium prior to their use. The final concentration of DMSO in cell culture wells never exceeded 0.25% (v/v). The FDA-approved anticancer drug set is available from the Developmental Therapeutics Program at https://dtp.cancer.gov/organization/dscb/obtaining/available_plates.htm. All drugs and investigational agents were tested over a range starting from a high concentration at or near the clinical Cmax and decreasing in half-log increments. If the clinical Cmax for an agent had not been determined, the highest concentration tested was 10 microM.
Cell Lines. The patient-derived cancer cell (PDC) lines: 292921-168-R-J2-PDC, K24384-001-R-PDC, and 521955-158-R2-J5-PDC pancreatic carcinomas, 556581-035-R-J1 ovarian carcinoma, 324938-238-R-J1-PDC, 855422-203-R-J1-PDC and 883617-216-R-J1-PDC urothelial bladder carcinomas, 743489-274-T-PDC renal cell carcinoma, 138582-R-J1 Merkel cell tumor, K60290-347-R-J1 and K57222-313-R-J1-PDC glioblastomas, 653999-131-R-J2-PDC, LG0703-F948-PDC, and 349418-098-R-PDC non-small cell lung carcinomas, 885512-296-R-J2-PDC, 171881-019-R-J1-PDC breast carcinomas and 186277-243-T-J2-PDC and 233499-124-R-J2-PDC colon carcinomas were obtained from the NCI Patient-Derived Models Repository (PDMR, https://pdmr.cancer.gov). The established cell lines NCI/ADR-RES (RRID:CVCL_14520 and OVCAR-5 (RRID:CVCL_1628) ovarian carcinomas, 786-O (RRID:CVCL_1051) and A498 (RRID:CVCL_A498) renal cell carcinoma, NCI-H211 (ATCC, cat. CRL-5824; RRID:CVCL_1529), NCI-H196 (ATCC, cat. CRL-5823, RRID:CVCL_1509), SW 1271 (ATCC, cat. CRL-2177, RRID:CVCL_1716) and NCI-H1876 (ATCC, cat. CRL-5902, RRID:CVCL_1503) small cell lung carcinomas, MDA-MB-231 (RRID:CVCL_0062) and MDA-MB-468 (RRID:CVCL_0419)breast carcinomas (10-12). Pooled donor human umbilical vein endothelial cells (HUVEC, Lonza, cat. CC-2519) and human mesenchymal stem cells (hMSC, Lonza, cat. PT-2501) were purchased from Lonza (Walkersville, MD).
Cell Culture. All cells were maintained in an incubator at 37 degrees C and 5% CO2 with 95% humidity. The PDC lines were cultured according to standard operating procedures established by the NCI PDMR (https://pdmr.cancer.gov). Briefly all PDCs were thawed and cultured in Matrigel-coated flasks prepared with a working solution of 1X Ham's F-12 nutrient mix, without supplementation (Invitrogen, Waltham, MA, cat. 11765054), 100 U/mL penicillin-streptomycin (Invitrogen, cat. 15140122), and 2.5% Matrigel (Corning Inc., Corning, NY, cat. 354248) for the first three passages. […]

[1] = curve of first compound, second compound 0.1 µM
[2] = curve of first compound, second compound 0.316 µM
[3] = curve of first compound, second compound 1 µM
[4] = curve of first compound, second compound 3.16 µM
[5] = curve of first compound, second compound 10 µM
[6] = second compound 0.1 µM, first compound 0.00949 µM
[7] = second compound 0.1 µM, first compound 0.03 µM
[8] = second compound 0.1 µM, first compound 0.0949 µM
[9] = second compound 0.1 µM, first compound 0.3 µM
[10] = second compound 0.316 µM, first compound 0.00949 µM
[11] = second compound 0.316 µM, first compound 0.03 µM
[12] = second compound 0.316 µM, first compound 0.0949 µM
[13] = second compound 0.316 µM, first compound 0.3 µM
[14] = second compound 1 µM, first compound 0.00949 µM
[15] = second compound 1 µM, first compound 0.03 µM
[16] = second compound 1 µM, first compound 0.0949 µM
[17] = second compound 1 µM, first compound 0.3 µM
[18] = second compound 3.16 µM, first compound 0.00949 µM
[19] = second compound 3.16 µM, first compound 0.03 µM
[20] = second compound 3.16 µM, first compound 0.0949 µM
[21] = second compound 3.16 µM, first compound 0.3 µM
[22] = second compound 10 µM, first compound 0.00949 µM
[23] = second compound 10 µM, first compound 0.03 µM
[24] = second compound 10 µM, first compound 0.0949 µM
[25] = second compound 10 µM, first compound 0.3 µM
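Further: spheroids exposed to agents for seven days.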
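Wherever viability, T/C is given: percent of DMSO vehicle control luminescence viability.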

Compound `CC1COCCN1c1cc(C2(S(C)(=N)=O)CC2)nc(-c2ccnc3[nH]ccc23)n1` (configuration not stated) + NC1CCC(NC2CC2c2ccccc2)CC1 has an IC50 [1] of 528 nM, an IC50 [2] of 505 nM and an IC50 [3] of 531 nM. The IC50 [4] was 500 nM, the IC50 [5] was 446 nM and the viability, T/C (second compound 0.1 µM, first compound 0.0316 µM) was 104%. For the same compound, the viability, T/C (second compound 0.1 µM, first compound 0.1 µM) was 87.7%, the viability, T/C (second compound 0.1 µM, first compound 0.316 µM) was 76.6% and the viability, T/C (second compound 0.1 µM, first compound 1 µM) was 16.5%. For the same compound, the viability, T/C (second compound 0.1 µM, first compound 3.16 µM) was 12.6%, the viability, T/C (second compound 0.1 µM, first compound 10 µM) was 16.9% and the viability, T/C (second compound 0.316 µM, first compound 0.0316 µM) was 88.7%. It also gave a viability, T/C (second compound 0.316 µM, first compound 0.1 µM) of 82.8%, a viability, T/C (second compound 0.316 µM, first compound 0.316 µM) of 71% and a viability, T/C (second compound 0.316 µM, first compound 1 µM) of 19.3%. The viability, T/C (second compound 0.316 µM, first compound 3.16 µM) was 13.2%, the viability, T/C (second compound 0.316 µM, first compound 10 µM) was 16.1% and the viability, T/C (second compound 1 µM, first compound 0.0316 µM) was 79.7%. The viability, T/C (second compound 1 µM, first compound 0.1 µM) was 90.3%, the viability, T/C (second compound 1 µM, first compound 0.316 µM) was 74.7% and the viability, T/C (second compound 1 µM, first compound 1 µM) was 19.8%. For the same compound, the viability, T/C (second compound 1 µM, first compound 3.16 µM) was 12.3%, the viability, T/C (second compound 1 µM, first compound 10 µM) was 15.3% and the viability, T/C (second compound 3.16 µM, first compound 0.0316 µM) was 97.6%. It also gave a viability, T/C (second compound 3.16 µM, first compound 0.1 µM) of 93.9%, a viability, T/C (second compound 3.16 µM, first compound 0.316 µM) of 71.5% and a viability, T/C (second compound 3.16 µM, first compound 1 µM) of 17.6%. The viability, T/C (second compound 3.16 µM, first compound 3.16 µM) was 11.3%, the viability, T/C (second compound 3.16 µM, first compound 10 µM) was 14.8% and the viability, T/C (second compound 10 µM, first compound 0.0316 µM) was 85%. For the same compound, the viability, T/C (second compound 10 µM, first compound 0.1 µM) was 81.6%, the viability, T/C (second compound 10 µM, first compound 0.316 µM) was 64.4% and the viability, T/C (second compound 10 µM, first compound 1 µM) was 16.2%. It also gave a viability, T/C (second compound 10 µM, first compound 3.16 µM) of 12.3% and a viability, T/C (second compound 10 µM, first compound 10 µM) of 16.7%.

`Nc1ncn(C2CC(O)C(CO)S2)c(=O)n1` (configuration not stated) + NC1CCC(NC2CC2c2ccccc2)CC1 gave an IC50 [1] greater than 300 nM, an IC50 [2] greater than 300 nM and an IC50 [3] greater than 300 nM. It also gave an IC50 [4] greater than 300 nM, an IC50 [5] greater than 300 nM and a viability, T/C (second compound 0.1 µM, first compound 0.000949 µM) of 92.9%. The viability, T/C (second compound 0.1 µM, first compound 0.003 µM) was 91%, the viability, T/C [6] was 88.3% and the viability, T/C [7] was 79.8%. The viability, T/C [8] was 75.6%, the viability, T/C [9] was 57.3% and the viability, T/C (second compound 0.316 µM, first compound 0.000949 µM) was 95.9%. For the same compound, the viability, T/C (second compound 0.316 µM, first compound 0.003 µM) was 92.2%, the viability, T/C [10] was 88.9% and the viability, T/C [11] was 84.6%. The viability, T/C [12] was 70.3%, the viability, T/C [13] was 51.5% and the viability, T/C (second compound 1 µM, first compound 0.000949 µM) was 92.5%. The viability, T/C (second compound 1 µM, first compound 0.003 µM) was 87%, the viability, T/C [14] was 93.7% and the viability, T/C [15] was 82.8%. For the same compound, the viability, T/C [16] was 77.8%, the viability, T/C [17] was 56.5% and the viability, T/C (second compound 3.16 µM, first compound 0.000949 µM) was 103%. For the same compound, the viability, T/C (second compound 3.16 µM, first compound 0.003 µM) was 110%, the viability, T/C [18] was 91.7% and the viability, T/C [19] was 88.1%. It also gave a viability, T/C [20] of 76.6%, a viability, T/C [21] of 52.7% and a viability, T/C (second compound 10 µM, first compound 0.000949 µM) of 93.6%. It also gave a viability, T/C (second compound 10 µM, first compound 0.003 µM) of 94.9%, a viability, T/C [22] of 98% and a viability, T/C [23] of 82.8%. It also gave a viability, T/C [24] of 77.4% and a viability, T/C [25] of 54.9%.

With `Nc1ccccc1NC(=O)c1ccc(CNC(=O)OCc2cccnc2)cc1` + NC1CC1c1ccc(-c2cccc(O)c2)cc1 the IC50 [1] was 429 nM, the IC50 [2] was 393 nM and the IC50 [3] was 446 nM. For the same compound, the IC50 [4] was 452 nM, the IC50 [5] was 403 nM and the viability, T/C [6] was 89.2%. For the same compound, the viability, T/C [7] was 101%, the viability, T/C [8] was 83.6% and the viability, T/C [9] was 62.8%. It also gave a viability, T/C (second compound 0.1 µM, first compound 0.949 µM) of 22.8%, a viability, T/C (second compound 0.1 µM, first compound 3 µM) of 0.44% and a viability, T/C [10] of 83.7%. The viability, T/C [11] was 88.8%, the viability, T/C [12] was 77.9% and the viability, T/C [13] was 59.9%. It also gave a viability, T/C (second compound 0.316 µM, first compound 0.949 µM) of 19.9%, a viability, T/C (second compound 0.316 µM, first compound 3 µM) of 0.28% and a viability, T/C [14] of 90.4%. It also gave a viability, T/C [15] of 88.5%, a viability, T/C [16] of 77.1% and a viability, T/C [17] of 67.8%. For the same compound, the viability, T/C (second compound 1 µM, first compound 0.949 µM) was 19.9%, the viability, T/C (second compound 1 µM, first compound 3 µM) was 1.47% and the viability, T/C [18] was 84.2%. It also gave a viability, T/C [19] of 89.1%, a viability, T/C [20] of 82.9% and a viability, T/C [21] of 70%. It also gave a viability, T/C (second compound 3.16 µM, first compound 0.949 µM) of 14.2%, a viability, T/C (second compound 3.16 µM, first compound 3 µM) of 0.23% and a viability, T/C [22] of 90.3%. For the same compound, the viability, T/C [23] was 85.1%, the viability, T/C [24] was 83.7% and the viability, T/C [25] was 65.3%. For the same compound, the viability, T/C (second compound 10 µM, first compound 0.949 µM) was 5.98% and the viability, T/C (second compound 10 µM, first compound 3 µM) was 0.28%.

With `NC1CCC(NC2CC2c2ccccc2)CC1` (configuration not stated) the viability, T/C (compound 0.316 µM) was 92.2% [middle of 4 runs] and the IC50 (compound alone, run of 02/15/2022) was greater than 10000 nM.
